Measurements: US11147812B2, “Tyrosine analogues derivatives as Rho-kinase inhibitors” (Chiesi Farmaceutici S.p.A., priority 2017, dated 2021)

Assays:
Rho kinase 1 (ROCK1) = Rho kinase 1 (ROCK1) (Homo sapiens, UniProt Q13464); assay: In vitro Rho kinase inhibitory activity assay (ADP-Glo), ROCK1; type: biochemical; settings: 10 μM ATP, 25° C., Ki by Cheng-Prusoff
Procedure: (§1) The effectiveness of compounds of the present invention to inhibit Rho kinase activity can be determined in a 10 μl assay containing 40 mM Tris pH7.5, 20 mM MgCl2 0.1 mg/ml BSA, 50 μM DTT and 2.5 μM peptide substrate (Myelin Basic Protein) using an ADP-Glo kit (Promega). Compounds were dissolved in DMSO such that the final concentration of DMSO was 1% in the assay. All reactions/incubations are performed at 25° C. Compound (2 ul) and either Rho kinase 1 or 2 (4 μl) were mixed and incubated for 30 mins. Reactions were initiated by addition of ATP (4 μl) such that the final concentration of ATP in the assay was 10 μM. After a 1 hour incubation 10 μl of ADP-Glo Reagent was added and after a further 45 minute incubation 20 ul of Kinase Detection Buffer was added and the mixture incubated for a further 30 minutes. The luminescent signal was measured on a luminometer. […] Compounds were tested in dose-response format and the inhibition of kinase activity was calculated at each concentration of compound. To determine the IC50 (concentration of compound required to inhibit 50% of the enzyme activity) data were fit to a plot of % inhibition vs Log10 compound concentration using a sigmoidal fit with a variable slope and fixing the maximum to 100% and the minimum to 0%. To determine the Ki values the Cheng-Prusoff equation was utilized (Ki=IC50/(1+[S]/Km)

Rho kinase 2 (ROCK2) = Rho kinase 2 (ROCK2) (Homo sapiens, UniProt O75116); assay: In vitro Rho kinase inhibitory activity assay (ADP-Glo), ROCK2; type: biochemical; settings: 10 μM ATP, 25° C., Ki by Cheng-Prusoff
Chain of Rho kinase 2 (ROCK2) (O75116 whole entry): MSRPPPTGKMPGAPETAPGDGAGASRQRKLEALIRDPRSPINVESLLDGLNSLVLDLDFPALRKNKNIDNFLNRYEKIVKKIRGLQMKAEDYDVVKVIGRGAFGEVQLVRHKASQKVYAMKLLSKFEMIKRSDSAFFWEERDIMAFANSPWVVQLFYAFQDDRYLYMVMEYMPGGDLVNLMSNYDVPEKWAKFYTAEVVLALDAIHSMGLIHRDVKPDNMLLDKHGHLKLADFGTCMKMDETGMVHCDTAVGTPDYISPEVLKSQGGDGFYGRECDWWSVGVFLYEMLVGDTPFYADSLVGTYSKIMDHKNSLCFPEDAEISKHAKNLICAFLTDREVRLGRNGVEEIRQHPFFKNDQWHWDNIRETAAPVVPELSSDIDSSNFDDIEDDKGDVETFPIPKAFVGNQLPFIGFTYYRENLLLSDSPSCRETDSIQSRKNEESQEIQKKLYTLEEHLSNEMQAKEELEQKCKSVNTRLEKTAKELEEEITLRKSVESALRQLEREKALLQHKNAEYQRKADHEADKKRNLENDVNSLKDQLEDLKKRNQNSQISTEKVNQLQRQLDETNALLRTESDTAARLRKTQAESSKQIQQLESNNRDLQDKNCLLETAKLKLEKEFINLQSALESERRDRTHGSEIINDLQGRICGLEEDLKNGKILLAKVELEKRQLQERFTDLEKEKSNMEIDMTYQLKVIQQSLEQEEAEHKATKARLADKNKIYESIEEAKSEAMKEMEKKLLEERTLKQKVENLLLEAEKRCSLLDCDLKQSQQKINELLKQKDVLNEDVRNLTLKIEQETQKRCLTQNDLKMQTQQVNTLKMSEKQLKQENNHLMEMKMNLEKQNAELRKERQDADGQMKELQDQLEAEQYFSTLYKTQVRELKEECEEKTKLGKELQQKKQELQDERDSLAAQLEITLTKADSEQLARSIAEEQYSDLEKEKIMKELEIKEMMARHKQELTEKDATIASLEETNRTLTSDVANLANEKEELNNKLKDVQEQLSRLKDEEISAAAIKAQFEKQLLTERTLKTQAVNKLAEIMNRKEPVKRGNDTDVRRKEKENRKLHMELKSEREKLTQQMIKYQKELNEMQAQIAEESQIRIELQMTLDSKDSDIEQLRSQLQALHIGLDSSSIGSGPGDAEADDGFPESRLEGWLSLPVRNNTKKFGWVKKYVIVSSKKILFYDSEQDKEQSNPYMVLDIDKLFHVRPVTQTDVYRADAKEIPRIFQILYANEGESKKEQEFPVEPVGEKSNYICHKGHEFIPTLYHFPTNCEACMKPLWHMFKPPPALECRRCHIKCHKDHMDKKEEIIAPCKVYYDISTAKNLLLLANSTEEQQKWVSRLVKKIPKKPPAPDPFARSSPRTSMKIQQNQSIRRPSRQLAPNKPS
Procedure: as §1

Chain of Rho kinase 1 (ROCK1) (Q13464 whole entry): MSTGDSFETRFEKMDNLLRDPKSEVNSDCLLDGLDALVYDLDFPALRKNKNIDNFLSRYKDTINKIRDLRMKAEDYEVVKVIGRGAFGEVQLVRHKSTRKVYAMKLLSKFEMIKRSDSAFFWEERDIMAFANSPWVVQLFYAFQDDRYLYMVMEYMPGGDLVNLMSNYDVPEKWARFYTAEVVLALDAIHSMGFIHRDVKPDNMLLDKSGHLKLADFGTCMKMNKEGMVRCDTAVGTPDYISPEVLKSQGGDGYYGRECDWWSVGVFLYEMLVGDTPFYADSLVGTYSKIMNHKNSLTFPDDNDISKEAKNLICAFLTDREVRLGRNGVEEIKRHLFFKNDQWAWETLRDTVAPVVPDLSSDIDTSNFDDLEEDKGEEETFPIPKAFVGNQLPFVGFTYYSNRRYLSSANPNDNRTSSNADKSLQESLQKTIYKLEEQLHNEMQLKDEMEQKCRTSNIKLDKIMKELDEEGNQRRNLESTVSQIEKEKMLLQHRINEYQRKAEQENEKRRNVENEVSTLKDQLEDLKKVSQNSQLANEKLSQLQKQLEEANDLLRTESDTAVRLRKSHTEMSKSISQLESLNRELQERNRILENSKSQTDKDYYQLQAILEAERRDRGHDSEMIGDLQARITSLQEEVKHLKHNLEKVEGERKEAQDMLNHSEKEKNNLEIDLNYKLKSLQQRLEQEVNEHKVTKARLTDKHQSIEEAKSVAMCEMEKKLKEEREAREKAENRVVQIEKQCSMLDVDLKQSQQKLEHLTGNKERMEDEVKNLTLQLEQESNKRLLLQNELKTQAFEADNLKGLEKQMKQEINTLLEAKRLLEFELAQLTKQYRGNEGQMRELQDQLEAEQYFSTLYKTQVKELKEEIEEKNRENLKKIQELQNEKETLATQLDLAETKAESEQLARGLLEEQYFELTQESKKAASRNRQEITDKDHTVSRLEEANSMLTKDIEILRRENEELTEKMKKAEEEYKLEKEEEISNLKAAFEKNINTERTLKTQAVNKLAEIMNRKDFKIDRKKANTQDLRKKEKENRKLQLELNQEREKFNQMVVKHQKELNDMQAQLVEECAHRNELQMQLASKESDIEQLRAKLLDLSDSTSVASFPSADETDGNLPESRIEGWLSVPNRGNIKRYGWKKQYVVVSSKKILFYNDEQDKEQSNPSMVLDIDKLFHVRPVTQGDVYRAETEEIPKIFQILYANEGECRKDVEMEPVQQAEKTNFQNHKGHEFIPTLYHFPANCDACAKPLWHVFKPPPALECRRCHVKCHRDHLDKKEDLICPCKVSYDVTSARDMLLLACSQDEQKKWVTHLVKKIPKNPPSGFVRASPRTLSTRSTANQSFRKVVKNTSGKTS

Row | Ki (Rho kinase 1 (ROCK1)) [nM] | Ki (Rho kinase 2 (ROCK2)) [nM] | SMILES
1 | < 3 | < 3 | Cc1c[nH]c2nccc(Oc3ccc([C@H]4CNC[C@@H]4C(=O)NCc4ccccc4)cc3)c12 (racemic) [Example 17, rac-(3R,4S)-N-benzyl-4-(4-((3-methyl-1H-pyrrolo[2,3-b]pyridin-4-yl)oxy)phenyl)pyrrolidine-3-carboxamide]
2 | 3 to 30 | < 3 | Cc1c[nH]c2nccc(Oc3ccc([C@H]4CNC[C@@H]4C(=O)N(C)Cc4ccccc4)cc3)c12 (racemic) [Example 18, rac-(3R,4S)-N-benzyl-N-methyl-4-(4-((3-methyl-1H-pyrrolo[2,3-b]pyridin-4-yl)oxy)phenyl)pyrrolidine-3-carboxamide]
3 | < 3 | < 3 | Cc1c[nH]c2nccc(Oc3ccc([C@H]4CCN[C@@H]4C(=O)NCc4ccccc4)cc3)c12 (racemic) [Example 19, rac-(2S,3R)-N-benzyl-3-(4-((3-methyl-1H-pyrrolo[2,3-b]pyridin-4-yl)oxy)phenyl)pyrrolidine-2-carboxamide]
4 | < 3 | < 3 | Cc1c[nH]c2nccc(Oc3ccc([C@H]4CCN[C@@H]4C(=O)NCCc4ccncc4)cc3)c12 (racemic) [Example 20, rac-(2S,3R)-3-(4-((3-methyl-1H-pyrrolo[2,3-b]pyridin-4-yl)oxy)phenyl)-N-(2-(pyridin-4-yl)ethyl)pyrrolidine-2-carboxamide]
5 | 3 to 30 | < 3 | COCCCNC(=O)[C@H]1NCC[C@@H]1c1ccc(Oc2ccnc3[nH]cc(C)c23)cc1 (racemic) [Example 21, rac-(2S,3R)-N-(3-methoxypropyl)-3-(4-((3-methyl-1H-pyrrolo[2,3-b]pyridin-4-yl)oxy)phenyl)pyrrolidine-2-carboxamide]
6 | < 3 | < 3 | Cc1c[nH]c2nccc(Oc3ccc([C@H]4CCN[C@@H]4C(=O)NCCc4ccccc4)cc3)c12 (racemic) [Example 22, rac-(2S,3R)-3-(4-((3-methyl-1H-pyrrolo[2,3-b]pyridin-4-yl)oxy)phenyl)-N-phenethylpyrrolidine-2-carboxamide]
7 | < 3 | < 3 | Cc1c[nH]c2nccc(Oc3ccc([C@H]4CCN[C@@H]4C(=O)NCCOc4ccccc4)cc3)c12 (racemic) [Example 23, rac-(2S,3R)-3-(4-((3-methyl-1H-pyrrolo[2,3-b]pyridin-4-yl)oxy)phenyl)-N-(2-phenoxyethyl)pyrrolidine-2-carboxamide]
8 | 3 to 30 | 3 to 30 | Cc1c[nH]c2nccc(Oc3ccc([C@H]4CCN[C@@H]4C(=O)NC4CCOCC4)cc3)c12 (racemic) [Example 24, rac-(2S,3R)-3-(4-((3-methyl-1H-pyrrolo[2,3-b]pyridin-4-yl)oxy)phenyl)-N-(tetrahydro-2H-pyran-4-yl)pyrrolidine-2-carboxamide]
9 | 3 to 30 | 3 to 30 | Cc1c[nH]c2nccc(Oc3ccc([C@H]4CCN[C@@H]4C(=O)NC4CCN(C)CC4)cc3)c12 (racemic) [Example 25, rac-(2S,3R)-3-(4-((3-methyl-1H-pyrrolo[2,3-b]pyridin-4-yl)oxy)phenyl)-N-(1-methylpiperidin-4-yl)pyrrolidine-2-carboxamide]
10 | 3 to 30 | 3 to 30 | Cc1c[nH]c2nccc(Oc3ccc([C@H]4CCN[C@@H]4C(=O)NCCCN(C)C)cc3)c12 (racemic) [Example 26, rac-(2R,3S)-N-(3-(dimethylamino)propyl)-3-(4-((3-methyl-1H-pyrrolo[2,3-b]pyridin-4-yl)oxy)phenyl)pyrrolidine-2-carboxamide]
11 | 3 to 30 | 3 to 30 | Cc1c[nH]c2nccc(Oc3ccc([C@@H]4CCN[C@H]4C(=O)N4CCNCC4)cc3)c12 (racemic) [Example 27, rac-((2S,3R)-3-(4-((3-methyl-1H-pyrrolo[2,3-b]pyridin-4-yl)oxy)phenyl)pyrrolidin-2-yl)(piperazin-1-yl)methanone]
12 | 3 to 30 | < 3 | Cc1c[nH]c2nccc(Oc3ccc([C@@H]4CN(C)C[C@H]4C(=O)NCc4ccccc4)cc3)c12 (racemic) [Example 50, rac-(3R,4S)-N-benzyl-1-methyl-4-(4-((3-methyl-1H-pyrrolo[2,3-b]pyridin-4-yl)oxy)phenyl)pyrrolidine-3-carboxamide]
13 | 3 to 30 | 3 to 30 | Cc1c[nH]c2nccc(Oc3ccc(CC(CN)C(=O)N4C[C@@H]5C[C@H]4CN5C)cc3F)c12 (single isomer, unassigned) [Example 4A]
14 | < 3 | < 3 | Cc1c[nH]c2nccc(Oc3ccc(CC(CN)C(=O)N4C[C@@H]5C[C@H]4CN5C)cc3F)c12 (single isomer, unassigned) [Example 4B]
15 | 3 to 30 | 3 to 30 | Cc1c[nH]c2nccc(Oc3ccc(CC(CN)C(=O)N4CCN(Cc5ccccn5)CC4)cc3F)c12 (single isomer, unassigned) [Example 5A, 3-amino-2-(3-fluoro-4-((3-methyl-1H-pyrrolo[2,3-b]pyridin-4-yl)oxy)benzyl)-1-(4-(pyridin-2-ylmethyl)piperazin-1-yl)propan-1-one]
16 | < 3 | < 3 | Cc1c[nH]c2nccc(Oc3ccc(CC(CN)C(=O)N4CCN(Cc5ccccn5)CC4)cc3F)c12 (single isomer, unassigned) [Example 5B, 3-amino-2-(3-fluoro-4-((3-methyl-1H-pyrrolo[2,3-b]pyridin-4-yl)oxy)benzyl)-1-(4-(pyridin-2-ylmethyl)piperazin-1-yl)propan-1-one]
17 | < 3 | < 3 | Cc1c[nH]c2nccc(Oc3ccc(C(N)CC(=O)N4CCN(Cc5ccccc5)CC4)cc3)c12 (single isomer, unassigned) [Example 7A, 3-amino-1-(4-benzylpiperazin-1-yl)-3-(4-((3-methyl-1H-pyrrolo[2,3-b]pyridin-4-yl)oxy)phenyl)propan-1-one]
18 | 3 to 30 | 3 to 30 | Cc1c[nH]c2nccc(Oc3ccc(C(N)CC(=O)N4CCN(Cc5ccccc5)CC4)cc3)c12 (single isomer, unassigned) [Example 7B, 3-amino-1-(4-benzylpiperazin-1-yl)-3-(4-((3-methyl-1H-pyrrolo[2,3-b]pyridin-4-yl)oxy)phenyl)propan-1-one]
19 | < 3 | < 3 | Cc1c[nH]c2nccc(Oc3ccc([C@H]4CNC[C@@H]4C(=O)NCc4ccccc4)cc3)c12 (single isomer, unassigned) [Example 17A]
20 | 3 to 30 | 3 to 30 | Cc1c[nH]c2nccc(Oc3ccc([C@H]4CNC[C@@H]4C(=O)NCc4ccccc4)cc3)c12 (single isomer, unassigned) [Example 17B]
21 | 3 to 30 | 3 to 30 | Cc1c[nH]c2nccc(Oc3ccc(CC(CN)C(=O)N4CCN(Cc5ccccc5)CC4)cc3F)c12 (single isomer, unassigned) [Example 29A, 3-amino-1-(4-benzylpiperazin-1-yl)-2-(3-fluoro-4-((3-methyl-1H-pyrrolo[2,3-b]pyridin-4-yl)oxy)benzyl)propan-l-one]
22 | < 3 | < 3 | Cc1c[nH]c2nccc(Oc3ccc(CC(CN)C(=O)N4CCN(Cc5ccccc5)CC4)cc3F)c12 (single isomer, unassigned) [Example 29B, 3-amino-1-(4-benzylpiperazin-1-yl)-2-(3-fluoro-4-((3-methyl-1H-pyrrolo[2,3-b]pyridin-4-yl)oxy)benzyl)propan-1-one]
23 | 3 to 30 | 3 to 30 | NCC(Cc1ccc(Oc2ccnc3[nH]ccc23)cc1)C(=O)N1CCN(Cc2ccccc2)CC1 (single isomer, unassigned) [Example 32A, 2-(4-((1H-pyrrolo[2,3-b]pyridin-4-yl)oxy)benzyl)-3-amino-1-(4-benzylpiperazin-1-yl)propan-1-one]
24 | < 3 | < 3 | NCC(Cc1ccc(Oc2ccnc3[nH]ccc23)cc1)C(=O)N1CCN(Cc2ccccc2)CC1 (single isomer, unassigned) [Example 32B, 2-(4-((1H-pyrrolo[2,3-b]pyridin-4-yl)oxy)benzyl)-3-amino-1-(4-benzylpiperazin-1-yl)propan-1-one]
25 | < 3 | < 3 | Cc1c[nH]c2nccc(Oc3ccc(CC(CN)C(=O)N4CCN(C)CC4)cc3)c12 (stereo not drawn) [Example 1, 3-amino-2-(4-((3-methyl-1H-pyrrolo[2,3-b]pyridin-4-yl)oxy)benzyl)-1-(4-methylpiperazin-1-yl)propan-1-one]
26 | < 3 | < 3 | Cc1c[nH]c2nccc(Oc3ccc(CC(CN)C(=O)N4CCN(C5CC5)CC4)cc3)c12 (stereo not drawn) [Example 2, 3-amino-1-(4-cyclopropylpiperazin-1-yl)-2-(4-((3-methyl-1H-pyrrolo[2,3-b]pyridin-4-yl)oxy)benzyl)propan-1-one]
27 | < 3 | < 3 | Cc1c[nH]c2nccc(Oc3ccc(CC(CN)C(=O)NC4CCN(C)CC4)cc3F)c12 (stereo not drawn) [Example 3, 3-amino-2-(3-fluoro-4-((3-methyl-1H-pyrrolo[2,3-b]pyridin-4-yl)oxy)benzyl)-N-(1-methylpiperidin-4-yl)propanamide]
